Entries after “also recorded” stand apart in the source; their conditions may differ.
B1: HAPLN1: hyaluronan and proteoglycan link protein 1 (SEQ ID NO: 1), added to chondrogenic media at 100 ng/mL (protein, listed as Homo sapiens)
chain: MKSLLLLVLISICWADHLSDNYTLDHDRAIHIQAENGPHLLVEAEQAKVFSHRGGNVTLPCKFYRDPTAFGSGIHKIRIKWTKLTSDYLKEVDVFVSMGYHKKTYGGYQGRVFLKGGSDSDASLVITDLTLEDYGRYKCEVIEGLEDDTVVVALDLQGVVFPYFPRLGRYNLNFHEAQQACLDQDAVIASFDQLYDAWRGGLDWCNAGWLSDGSVQYPITKPREPCGGQNTVPGVRNYGFWDKDKSRYDVFCFTSNFNGRFYYLIHPTKLTYDEAVQACLNDGAQIAKVGQIFAAWKILGYDRCDAGWLADGSVRYPISRPRRRCSPTEAAVRFVGFPDKKHKLYGVYCFRAYN

Legend:
[1] = tested on: Y201 OA models; experiment: q-PCR of OA models with coated scaffolds or HAPLN1 modified chondrogenic media; format: cell-based, human; settings: OA models (cytokine stimulated); for fold change of MMP13 gene expression: scaffold coating or media supplement
Method: (§1) To improve the overall quality of the model and encourage aggrecan deposition a range of separate coatings were applied to the 3D scaffold. The applied coatings were selected from human collagen type II, human hyaluronan and human aggrecan to empty 3D scaffolds. Specifically, COL-II was solubilised to 1 mg/mL in 0.5M acetic acid. Stock was diluted 1:500 in PBS and 10 uL layered onto each scaffold. Scaffolds were left to air dry overnight at 2-8 degrees. The next day scaffolds there gently washed in PBS and were ready for use. Hyaluronan was reconstituted into a 1% w/v stock in sterile water. 10 uL was added to each scaffold and left to polymerise at 37 degrees for 1 hour. Following this incubation scaffolds were ready to use. Aggrecan was reconstituted in PBS to create a 100ug/mL stock solution. This stock was used neat, with 10 uL added to each scaffold. Scaffolds were incubated at 37 degrees for several hours prior to use.
(§2) An independent modification was also made to the chondrogenic media. This involved the addition of the HAPLN1 link protein (SEQ ID NO: 1). Specifically, HAPLN1 stock solution was added to chondrogenic media at a working concentration of 100 ng/mL. The resulting medium composition (complete) is outlined in Table 1. L-Ascorbic acid-2-phosphate and HAPLN1 link protein have limited shelf life at 4° C. and so are added to aliquots of incomplete CDM (all components of Table 1 with the exception of L-Ascorbic acid-2-phosphate and HAPLN1 link protein) to create complete CDM on day 7. Preparation of HAPLN1 link protein (Cat #2608-HP RnD sytems) is as follows: • Unit concentration: 25 μg • Solvent: PBS • Reconstitution volume: 250 μl • Stock concentration: 100 μg/mL • Working concentration: 100 ng/mL • Use: 1:1000 dilution for working concentration. E.g. 50 μL of stock into 50 mL of media. • HAPLN1 is reportedly stable for 1 month at 4° C.
(§3) The resulting models were stimulated with cytokines using previously established protocols to create OA models. Following cytokine stimulation, the resulting OA models were harvested and analysed for q-PCR, and immunofluorescent (IF). The supernatant was also harvested and analysed using ELISAs and FRET assays. All analyses were conducted in triplicate.

[2] = tested on: Y201 models and OA models; experiment: Aggrecan / collagen II immunofluorescence (IHC) of models and OA models with coatings or media modification; format: cell-based, human
Method: as §1, §2, §3

[3] = tested on: Y201 models and OA models; experiment: ELISA of MMP13 and ADAMTS4 in supernatant of modified models and OA models; format: cell-based, human; settings: OA models vs models; for MMP13 concentration in supernatant (ELISA): coating or supplement
Method: as §1, §2, §3

[4] = at 4° C.; cited from earlier work
[5] = models not stimulated with cytokines
[6] = OA models (cytokine stimulated)

Molecule | ADAMTS5 gene expression ([1]; coated scaffolds) | aggrecan staining [2, 5] | MMP13 concentration in supernatant (ELISA) [3] | gene expression profile vs uncoated OA models ([1]; coated scaffolds) | ADAMTS4 concentration in supernatant (ELISA) ([3]; coating) | fold change of MMP13 gene expression [1] | aggrecan staining [2, 6] | collagen II production (immunofluorescence) ([2]; MSCs differentiated to chondrocytes in presence of HAPLN1) | stability [4]
Collagen type II: human collagen type II applied as coating to the 3D scaffold | increase in expression of ADAMTS5 | did not stain positively of aggrecan | decrease in the levels of MMP13 | – | – | – | – | – | –
Hyaluronan | – | did not stain positively of aggrecan | decrease in the levels of MMP13 | comparable | increase in ADATS4 levels | – | – | – | –
aggrecan: human aggrecan applied as coating to the 3D scaffold | – | did not stain for aggrecan | increased MMP13 levels | – | – | ~19 fold | aggrecan was detected | – | –
B1 | – | did stain for aggrecan; also recorded: significant levels of ACAN protein | increased MMP13 levels | – | – | ~6 fold | no staining of aggrecan | does not have a negative effect on collagen II production | 1 month
